Laboratory results as given in patent publication US9035059B2, “Nitrogen-containing condensed heterocyclic compound” (TAISHO PHARMACEUTICAL CO., LTD., priority 2011, dated 2015).

What follows are compounds tested against human MGAT2 (Homo sapiens (Human), UniProt Q3SYC2) (assay: Test Example 1: Test of MGAT2 inhibitory action (human MGAT2 enzyme fraction from Sf9 cells, free CoA detected by CPM fluorescence)). Details: human MGAT2 enzyme fraction expressed in Sf9 insect cells, 0.5 μg/ml, 2-monooleoyl glycerol 0.78 μM, oleoyl-CoA 5.3 μM, room temperature 20 min, listed as 10-3, read-out: Activity Value [nM] (IC50, concentration at which 50% of produced free CoA was inhibited).
Sequence of human MGAT2 (Q3SYC2 whole entry): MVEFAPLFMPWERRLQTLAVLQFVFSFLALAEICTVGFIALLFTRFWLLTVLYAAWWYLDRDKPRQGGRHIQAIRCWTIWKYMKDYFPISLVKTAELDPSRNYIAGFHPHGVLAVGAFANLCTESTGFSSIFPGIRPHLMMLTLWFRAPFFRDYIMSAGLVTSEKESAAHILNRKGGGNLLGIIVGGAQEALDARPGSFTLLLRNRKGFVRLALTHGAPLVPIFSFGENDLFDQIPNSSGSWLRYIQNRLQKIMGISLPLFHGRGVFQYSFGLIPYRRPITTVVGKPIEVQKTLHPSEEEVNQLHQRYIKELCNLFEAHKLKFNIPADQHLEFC
Assay type: biochemical
Protocol: The MGAT2 inhibitory action of the inventive compound was measured by the methods described in Test Examples as shown below. The MGAT enzyme activity was measured based on the amount of an indicator, free Coenzyme A (CoA) which is generated by the reaction shown below, using a sulfhydryl reactive pigment (7-diethylamino-3-(4-maleimidophenyl)-4-methylcoumarin; hereinafter, sometimes abbreviated as CPM).
A test for MGAT2 inhibitory action of test compounds was conducted in accordance with a partially modified version of the method described in John F. Lockwood et al., Am. J. Physiol. Endocrinol. Metab., 2003, 285, E927.
Bac-to-Bac Baculovirus Expression System (Life Technologies Japan) was used to express human MGAT2 in insect cells (Sf9) (Life Technologies Japan). These cells were sonicated and centrifuged at 100,000 g×1 hr to give a precipitate. The precipitate was used as a human MGAT2 enzyme fraction in this assay.
This test was conducted using a black flat-bottom 96-well plate (Corning). A buffer solution with final concentrations of 5 mM magnesium chloride, 100 mM sucrose and 100 mM Tris-HCl (pH=7.5) was prepared and test compounds prepared in various concentrations using dimethyl sulfoxide were added thereto to give a final dimethyl sulfoxide concentration of 1%. The MGAT2 enzyme fraction was added thereto to give a final concentration of 0.5 μg/ml and phosphatidylcholine, 2-monooleoyl glycerol and oleoyl-CoA were added thereto to give final concentrations of 7.5 μM, 0.78 μM and 5.3 μM, respectively, before starting a reaction. The reaction was performed at room temperature for 20 min.
After 20 min, a CPM-containing solution was added thereto to give a final concentration of 5 μM before stopping the MGAT reaction. After 1 hr, a fluorescence detector (Infinite 200 from Tecan Japan) was used to measure the CPM fluorescence value of each well (excitation 380 nm, emission 460 nm).
Work on `CCCCCCOc1ccc(NS(=O)(=O)c2ccc3c(c2)CCN(C(C)Cc2ccc(C(C)(C)C)cc2)C3)c(F)c1` (single isomer, unassigned) [Working Example 10-3] yielded an IC50 of 26 nM.

Same assay, conditions: human MGAT2 enzyme fraction expressed in Sf9 insect cells, 0.5 μg/ml, 2-monooleoyl glycerol 0.78 μM, oleoyl-CoA 5.3 μM, room temperature 20 min, listed as 10-4, read-out: Activity Value [nM] (IC50, concentration at which 50% of produced free CoA was inhibited)
`CCCCCCOc1ccc(NS(=O)(=O)c2ccc3c(c2)CCN(C(C)Cc2ccc(C(C)(C)C)cc2)C3)c(F)c1` (single isomer, unassigned) [Working Example 10-4] gave an IC50 of 39 nM.

Same assay, conditions: human MGAT2 enzyme fraction expressed in Sf9 insect cells, 0.5 μg/ml, 2-monooleoyl glycerol 0.78 μM, oleoyl-CoA 5.3 μM, room temperature 20 min, listed as 10-5, read-out: Activity Value [nM] (IC50, concentration at which 50% of produced free CoA was inhibited)
Compound `CC(Cc1ccc(C(C)(C)C)cc1)N1CCc2cc(S(=O)(=O)Nc3ccc(CCCC4CCCC4)cc3F)ccc2C1` (single isomer, unassigned) [Working Example 10-5] has an IC50 of 25 nM.

Same assay, conditions: human MGAT2 enzyme fraction expressed in Sf9 insect cells, 0.5 μg/ml, 2-monooleoyl glycerol 0.78 μM, oleoyl-CoA 5.3 μM, room temperature 20 min, listed as 10-6, read-out: Activity Value [nM] (IC50, concentration at which 50% of produced free CoA was inhibited)
With `CC(Cc1ccc(C(C)(C)C)cc1)N1CCc2cc(S(=O)(=O)Nc3ccc(CCCC4CCCC4)cc3F)ccc2C1` (single isomer, unassigned) [Working Example 10-6] the IC50 was 44 nM.

Same assay, conditions: human MGAT2 enzyme fraction expressed in Sf9 insect cells, 0.5 μg/ml, 2-monooleoyl glycerol 0.78 μM, oleoyl-CoA 5.3 μM, room temperature 20 min, listed as 10-7, read-out: Activity Value [nM] (IC50, concentration at which 50% of produced free CoA was inhibited)
`CCCCCCCc1ccc(NS(=O)(=O)c2ccc3c(c2)CCN(C(C)Cc2ccc(C(C)(C)C)cc2)C3)c(F)c1` (single isomer, unassigned) [Working Example 10-7] gave an IC50 of 31 nM.

Same assay, conditions: human MGAT2 enzyme fraction expressed in Sf9 insect cells, 0.5 μg/ml, 2-monooleoyl glycerol 0.78 μM, oleoyl-CoA 5.3 μM, room temperature 20 min, listed as 10-8, read-out: Activity Value [nM] (IC50, concentration at which 50% of produced free CoA was inhibited)
For `CCCCCCCc1ccc(NS(=O)(=O)c2ccc3c(c2)CCN(C(C)Cc2ccc(C(C)(C)C)cc2)C3)c(F)c1` (single isomer, unassigned) [Working Example 10-8], the IC50 was 62 nM.

Same assay, conditions: human MGAT2 enzyme fraction expressed in Sf9 insect cells, 0.5 μg/ml, 2-monooleoyl glycerol 0.78 μM, oleoyl-CoA 5.3 μM, room temperature 20 min, listed as 10-11, read-out: Activity Value [nM] (IC50, concentration at which 50% of produced free CoA was inhibited)
`CC(Cc1ccc(C(C)(C)C)cc1)N1CCc2cc(S(=O)(=O)Nc3ccc(OCCCCCc4ccccc4)cc3F)ccc2C1` (single isomer, unassigned) [Working Example 10-11] showed an IC50 of 80 nM.

Same assay, conditions: human MGAT2 enzyme fraction expressed in Sf9 insect cells, 0.5 μg/ml, 2-monooleoyl glycerol 0.78 μM, oleoyl-CoA 5.3 μM, room temperature 20 min, listed as 10-12, read-out: Activity Value [nM] (IC50, concentration at which 50% of produced free CoA was inhibited)
Compound `CC(Cc1ccc(C(C)(C)C)cc1)N1CCc2cc(S(=O)(=O)Nc3ccc(OCCCCCc4ccccc4)cc3F)ccc2C1` (single isomer, unassigned) [Working Example 10-12] has an IC50 of 42 nM.

Same assay, conditions: human MGAT2 enzyme fraction expressed in Sf9 insect cells, 0.5 μg/ml, 2-monooleoyl glycerol 0.78 μM, oleoyl-CoA 5.3 μM, room temperature 20 min, listed as 10-13, read-out: Activity Value [nM] (IC50, concentration at which 50% of produced free CoA was inhibited)
In the case of `CC(Cc1ccc(C(C)(C)C)cc1)N1CCc2cc(S(=O)(=O)Nc3ccc(OCCCC4CCCCC4)cc3F)ccc2C1` (single isomer, unassigned) [Working Example 10-13], the IC50 was 66 nM.

Same assay, conditions: human MGAT2 enzyme fraction expressed in Sf9 insect cells, 0.5 μg/ml, 2-monooleoyl glycerol 0.78 μM, oleoyl-CoA 5.3 μM, room temperature 20 min, listed as 10-14, read-out: Activity Value [nM] (IC50, concentration at which 50% of produced free CoA was inhibited)
Compound `CC(Cc1ccc(C(C)(C)C)cc1)N1CCc2cc(S(=O)(=O)Nc3ccc(OCCCC4CCCCC4)cc3F)ccc2C1` (single isomer, unassigned) [Working Example 10-14] has an IC50 of 106 nM.

Same assay, conditions: human MGAT2 enzyme fraction expressed in Sf9 insect cells, 0.5 μg/ml, 2-monooleoyl glycerol 0.78 μM, oleoyl-CoA 5.3 μM, room temperature 20 min, read-out: Activity Value [nM] (IC50, concentration at which 50% of produced free CoA was inhibited)
`CCCCCCOc1ccc(NS(=O)(=O)c2ccc3c(c2)CCN(C(=O)Nc2ccc(CCCC)cc2)C3)c(F)c1` [14-3] gave an IC50 of 76 nM.
In the case of `CCCCCCOc1ccc(NS(=O)(=O)c2ccc3c(c2)CCN(C(=O)Nc2ccc(C(C)(C)C)cc2)C3)c(F)c1` [14-4], the IC50 was 98 nM.
In the case of `COc1cc(F)ccc1NS(=O)(=O)c1ccc2c(c1)CN(C(=O)Nc1ccc(C(C)(C)C)cc1)C2` [14-9], the IC50 was 168 nM.
`COc1ccc(NS(=O)(=O)c2ccc3c(c2)CN(C(=O)Nc2ccc(C(C)(C)C)cc2)C3)c(F)c1` [14-16] gave an IC50 of 164 nM.
For `CCCCCOc1ccc(NS(=O)(=O)c2ccc3c(c2)CN(C(=O)Nc2ccc(C(C)(C)C)cc2)C3)c(F)c1` [14-18], the IC50 was 147 nM.
Work on `COc1cc(F)cc(F)c1NS(=O)(=O)c1ccc2c(c1)CN(C(=O)Nc1ccc(C(C)(C)C)cc1)C2` [14-21] yielded an IC50 of 193 nM.
For `CC(C)(C)c1ccc(NC(=O)N2CCc3cc(S(=O)(=O)Nc4ccc(OCCC5CCOCC5)cc4F)ccc3C2)cc1` [14-35], the IC50 was 178 nM.
In the case of `O=C(NC1CCCCC1)N1CCc2cc(S(=O)(=O)Nc3ccc(CCCC4CCCC4)cc3F)ccc2C1` [14-36], the IC50 was 69 nM.
For `CCCCCCCOc1ccc(NS(=O)(=O)c2ccc3c(c2)CCN(CCc2ccc(C(C)(C)C)cc2)C3)c(F)c1` [17-1, 2-[2-(4-tert-Butylphenyl)ethyl]-N-[2-fluoro-4-(heptyloxy)phenyl]-1,2,3,4-tetrahydroisoquinoline-6-sulfonamide], the IC50 was 40 nM.
`CCCCCCCCOc1ccc(NS(=O)(=O)c2ccc3c(c2)CCN(CCc2ccc(C(C)(C)C)cc2)C3)c(F)c1` [17-2] gave an IC50 of 45 nM.
In the case of `CC(C)(C)c1ccc(CCN2CCc3cc(S(=O)(=O)Nc4ccc(OCCCCCc5ccccc5)cc4F)ccc3C2)cc1` [17-5], the IC50 was 24 nM.
Work on `CC(C)(C)c1ccc(CCN2CCc3cc(S(=O)(=O)Nc4ccc(OCCCC5CCCCC5)cc4F)ccc3C2)cc1` [17-6] yielded an IC50 of 39 nM.
For `CC(C)(C)c1ccc(CCN2CCc3cc(S(=O)(=O)Nc4ccc(OCCC5CCOCC5)cc4F)ccc3C2)cc1` [17-7], the IC50 was 79 nM.
With `CCCCCCOc1ccc(NS(=O)(=O)c2ccc3c(c2)CN(C(=O)Nc2ccc(C(C)(C)C)cc2)C3)c(F)c1` [18-6] the IC50 was 43 nM.
With `CCCCCCCCOc1ccc(NS(=O)(=O)c2ccc3c(c2)CN(C(=O)Nc2ccc(C(C)(C)C)cc2)C3)c(F)c1` [18-7] the IC50 was 7 nM.
`CC(C)(C)c1ccc(NC(=O)N2Cc3ccc(S(=O)(=O)Nc4ccc(OCC5CCCCC5)cc4F)cc3C2)cc1` [18-10] was tested, and the IC50 was 230 nM.
Compound `CC(C)(C)c1ccc(NC(=O)N2Cc3ccc(S(=O)(=O)Nc4ccc(OCCC5CCCCC5)cc4F)cc3C2)cc1` [18-11] has an IC50 of 29 nM.
With `CC(C)(C)c1ccc(NC(=O)N2Cc3ccc(S(=O)(=O)Nc4ccc(OCCCC5CCCCC5)cc4F)cc3C2)cc1` [18-12] the IC50 was 26 nM.
`CC(C)(C)c1ccc(NC(=O)N2Cc3ccc(S(=O)(=O)Nc4ccc(OCCc5ccccc5)cc4F)cc3C2)cc1` [18-14] was tested, and the IC50 was 127 nM.
`CC(C)(C)c1ccc(NC(=O)N2Cc3ccc(S(=O)(=O)Nc4ccc(OCCCc5ccccc5)cc4F)cc3C2)cc1` [18-15] was tested, and the IC50 was 56 nM.
Compound `CC(C)(C)c1ccc(NC(=O)N2Cc3ccc(S(=O)(=O)Nc4ccc(OCCCCCc5ccccc5)cc4F)cc3C2)cc1` [18-16] has an IC50 of 10 nM.
In the case of `CC(C)(C)c1ccc(NC(=O)N2Cc3ccc(S(=O)(=O)Nc4ccc(OCCOc5ccccc5)cc4F)cc3C2)cc1` [18-18], the IC50 was 136 nM.
`CC(C)(C)c1ccc(NC(=O)N2Cc3ccc(S(=O)(=O)Nc4ccc(OCCOc5ccc(F)cc5)cc4F)cc3C2)cc1` [18-19] was tested, and the IC50 was 125 nM.
Work on `CC(C)(C)c1ccc(NC(=O)N2Cc3ccc(S(=O)(=O)Nc4ccc(OCCOc5cccc(C(F)(F)F)c5)cc4F)cc3C2)cc1` [18-21] yielded an IC50 of 59 nM.
`COc1ccc(OCCOc2ccc(NS(=O)(=O)c3ccc4c(c3)CN(C(=O)Nc3ccc(C(C)(C)C)cc3)C4)c(F)c2)cc1` [18-22] showed an IC50 of 120 nM.
Work on `CC(C)(C)c1ccc(NC(=O)N2Cc3ccc(S(=O)(=O)Nc4ccc(OCCCOc5ccccc5)cc4F)cc3C2)cc1` [18-23] yielded an IC50 of 92 nM.
`CC(C)(C)c1ccc(NC(=O)N2Cc3ccc(S(=O)(=O)Nc4ccc(OCCCOc5cccc(Cl)c5)cc4F)cc3C2)cc1` [18-24] gave an IC50 of 62 nM.
With `CC(C)(C)c1ccc(NC(=O)N2Cc3ccc(S(=O)(=O)Nc4ccc(OCCCCOc5ccccc5)cc4F)cc3C2)cc1` [18-25] the IC50 was 33 nM.
Work on `CC(C)(C)c1ccc(NC(=O)N2Cc3ccc(S(=O)(=O)Nc4ccc(OCCCC(F)(F)F)cc4F)cc3C2)cc1` [18-26] yielded an IC50 of 185 nM.
With `CC(C)(C)c1ccc(NC(=O)N2Cc3ccc(S(=O)(=O)Nc4ccc(OCCOC5CCCC5)cc4F)cc3C2)cc1` [18-29] the IC50 was 128 nM.
With `CC(C)(C)c1ccc(NC(=O)N2Cc3ccc(S(=O)(=O)Nc4ccc(OCCC5CC5)cc4F)cc3C2)cc1` [18-31] the IC50 was 266 nM.
In the case of `CC(C)(C)c1ccc(NC(=O)N2Cc3ccc(S(=O)(=O)Nc4ccc(OCCC5CCCC5)cc4F)cc3C2)cc1` [18-32], the IC50 was 58 nM.
